In PubChem BioAssay (NCI):
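Test compounds were applied to cells in 96-well plates for 48 hours at 5 doses. The concentration for 50% growth inhibition is given as GI50. TGI: concentration producing complete growth inhibition.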

Assays:
Assay in all cases: inhibition of tumour cell growth, NCI panel, 48 h
HOP-62 NSCLC = system: HOP-62 NSCLC
HCT-15 colon = system: HCT-15 colon
NCI-H522 lung = system: NCI-H522 lung
A498 renal = system: A498 renal
RXF 393 renal = system: RXF 393 renal
IGROV1 ovarian = system: IGROV1 ovarian
COLO 205 colon = system: COLO 205 colon
SK-OV-3 ovarian = system: SK-OV-3 ovarian
UACC-62 melanoma = system: UACC-62 melanoma
SN12C renal = system: SN12C renal
MALME-3M melanoma = system: MALME-3M melanoma
HCC-2998 colon = system: HCC-2998 colon
A549 NSCLC = system: A549 NSCLC
786-0 renal = system: 786-0 renal
MCF7 breast = system: MCF7 breast
HOP-92 NSCLC = system: HOP-92 NSCLC
SK-MEL-2 melanoma = system: SK-MEL-2 melanoma
SK-MEL-28 melanoma = system: SK-MEL-28 melanoma
HCT-116 colon = system: HCT-116 colon
NCI-H460 lung = system: NCI-H460 lung
OVCAR-3 ovarian = system: OVCAR-3 ovarian
MDA-MB-435 = system: MDA-MB-435
OVCAR-5 ovarian = system: OVCAR-5 ovarian
CCRF-CEM leukemia = system: CCRF-CEM leukemia
NCI-H226 lung = system: NCI-H226 lung
MDA-MB-468 breast = system: MDA-MB-468 breast
CAKI-1 renal = system: CAKI-1 renal
HL-60(TB) leukemia = system: HL-60(TB) leukemia

Nc1cccnc1/C=N/NC(=S)NCCNC(=O)c1ccc(-n2nc(-c3ccccc3O)nc2-c2ccccc2O)cc1
GI50 (HOP-62 NSCLC): 487 nM
TGI (HOP-62 NSCLC): 5460 nM
GI50 (HCT-15 colon): 1980 nM
TGI (HCT-15 colon): 11700 nM
GI50 (NCI-H522 lung): 154 nM
TGI (NCI-H522 lung): 798 nM
GI50 (A498 renal): 29700 nM
TGI (A498 renal): > 100000 nM
GI50 (RXF 393 renal): 1040 nM
TGI (RXF 393 renal): 4060 nM
GI50 (IGROV1 ovarian): 355 nM
TGI (IGROV1 ovarian): 11600 nM
GI50 (COLO 205 colon): 329 nM
TGI (COLO 205 colon): 11700 nM
GI50 (SK-OV-3 ovarian): 594 nM
TGI (SK-OV-3 ovarian): 3510 nM
GI50 (UACC-62 melanoma): 236 nM
TGI (UACC-62 melanoma): 1050 nM
GI50 (SN12C renal): 494 nM
TGI (SN12C renal): 6350 nM
GI50 (MALME-3M melanoma): 628 nM
TGI (MALME-3M melanoma): 8940 nM
GI50 (HCC-2998 colon): 533 nM
TGI (HCC-2998 colon): 8160 nM
GI50 (A549 NSCLC): 1230 nM
TGI (A549 NSCLC): > 23800 nM
GI50 (786-0 renal): 790 nM
TGI (786-0 renal): 3730 nM
GI50 (MCF7 breast): 189 nM
TGI (MCF7 breast): 4900 nM
GI50 (HOP-92 NSCLC): 283 nM
TGI (HOP-92 NSCLC): 5160 nM
GI50 (SK-MEL-2 melanoma): 765 nM
TGI (SK-MEL-2 melanoma): 9460 nM
GI50 (SK-MEL-28 melanoma): 532 nM
TGI (SK-MEL-28 melanoma): > 100000 nM
GI50 (HCT-116 colon): 305 nM
TGI (HCT-116 colon): 6670 nM
GI50 (NCI-H460 lung): 396 nM
TGI (NCI-H460 lung): 2460 nM
GI50 (OVCAR-3 ovarian): 366 nM
TGI (OVCAR-3 ovarian): 15900 nM
GI50 (MDA-MB-435): 561 nM
TGI (MDA-MB-435): > 100000 nM
GI50 (OVCAR-5 ovarian): 1570 nM
TGI (OVCAR-5 ovarian): > 28400 nM
GI50 (CCRF-CEM leukemia): 186 nM
TGI (CCRF-CEM leukemia): 1210 nM
GI50 (NCI-H226 lung): 803 nM
TGI (NCI-H226 lung): 4850 nM
GI50 (MDA-MB-468 breast): 249 nM
TGI (MDA-MB-468 breast): 935 nM
GI50 (CAKI-1 renal): 1240 nM
TGI (CAKI-1 renal): > 20900 nM
GI50 (HL-60(TB) leukemia): 261 nM
